The values that follow come from patent US10683273B2, “Compounds as DNA probes, methods and applications thereof” (JAWAHARLAL NEHRU CENTRE FOR ADVANCED SCIENTIFIC RESEARCH, priority 2015, dated 2020).

Series [1] concerns CT-DNA. The series can be described thus: Switch-on NIR-fluorescence enhancement with DNA. In kind it is binding, Calf. The protocol: (§1) All the chemicals, reagents, single-stranded oligos (dA20, dT20, dG20, dC20), self-complementary oligos {d(ATAT)5, (D1)mix, Drew-AT, Calf-Thymus DNA (CT-DNA), (DM1, DM2, DM3, DM4, DM5, DM6 and DM7)}, RNA, were purchased from Sigma-Aldrich. ^1H and ^13C NMR spectra were recorded on a Bruker AV-400 MHz spectrometer with chemical shifts reported as parts per million (ppm) (in DMSO-d6, tetramethylsilane as an internal standard) at 20° C. UV-vis absorption and emission spectra were measured in quartz cuvettes of 1 cm path length. High resolution mass spectra (HRMS) were obtained on Agilent Technologies 6538 UHD Accurate-Mass Q-TOF LC/MS spectrometer. All biophysical studies (UV-vis, fluorescence and Cirular dichroism) are carried out at the concentration 0-5 μM of probe, volume=500 μL, temperature=25° C. and time of incubation=2 minutes. […]
(§2) The UV-vis absorption and emission spectra are recorded on Agilent Technologies Cary series UV-vis-NIR absorbance and Cary eclipse fluorescence spectrophotometers, respectively. […] Absorption is monitored at 260 nm with regular 5° C. intervals. Melting temperatures (Tm) of DNA samples are calculated from the first derivatives of the absorption vs. temperature curves (thermal denaturation or melting curves) obtained by monitoring at 260 nm. […]

Series [2] relates to DM4 (5′-AATT-3′). Kind of series: Sequence-specific fluorescence enhancement, variable (A/T)4 core. In kind it is binding. Conditions: QCy-DT 2 μM, DM4 4 μM. As for the experimental part:
(§3) All the chemicals, reagents, single-stranded oligos (dA20, dT20, dG20, dC20), self-complementary oligos {d(ATAT)5, (D1)mix, Drew-AT, Calf-Thymus DNA (CT-DNA), (DM1, DM2, DM3, DM4, DM5, DM6 and DM7)}, RNA, were purchased from Sigma-Aldrich. ^1H and ^13C NMR spectra were recorded on a Bruker AV-400 MHz spectrometer with chemical shifts reported as parts per million (ppm) (in DMSO-d6, tetramethylsilane as an internal standard) at 20° C. UV-vis absorption and emission spectra were measured in quartz cuvettes of 1 cm path length. High resolution mass spectra (HRMS) were obtained on Agilent Technologies 6538 UHD Accurate-Mass Q-TOF LC/MS spectrometer. All biophysical studies (UV-vis, fluorescence and Cirular dichroism) are carried out at the concentration 0-5 μM of probe, volume=500 μL, temperature=25° C. and time of incubation=2 minutes. HeLa cells and MCF7 cells used in the biological studies are obtained from “Molecular reproduction, development and genetics lab, Indian institute of science, Bangalore, India”
(§4) Stock solutions of QCy-DT are prepared in double-distilled (dd) water in the order of 10^−3 M and stored at about −10° C. DNA stock solutions are prepared by dissolving oligo samples in double-distilled (dd) water in the order of 10^−4 M. Solutions of DNA duplexes are prepared in Tris-HCl (100 mM, pH=7.4) buffer solution by mixing complementary DNA strands in equimolar concentration. This solution is then subjected to annealing by heating up to about 85° C. for about 15 minutes, subsequently cooled to room temperature for about 7 hours and stored in the refrigerator (about 4° C.) for about 4 hours.
(§5) The UV-vis absorption and emission spectra are recorded on Agilent Technologies Cary series UV-vis-NIR absorbance and Cary eclipse fluorescence spectrophotometers, respectively. Thermal denaturation (UV-melting) studies are carried out on Cary 5000 UV-vis-NIR spectrophotometer equipped with Cary temperature controller in the range of 10° C. to 90° C. with a ramp rate of 1° C./min. The variable temperature/wavelength mode is used. Absorption is monitored at 260 nm with regular 5° C. intervals. Melting temperatures (Tm) of DNA samples are calculated from the first derivatives of the absorption vs. temperature curves (thermal denaturation or melting curves) obtained by monitoring at 260 nm.
(§6) Almost about ˜4-folds difference in fluorescence enhancement of QCy-DT in the presence of (A-T)20 compared to self-complementary, alternative AT-base pair containing d(ATAT)5 duplex is observed, although both contain total 20 AT base pairs (FIG. 3 and FIG. 12a). […] There are no NIR-fluorescence probes that sequence-specifically recognize the minor groove of AT-rich DNA. […] Further, QCy-DT detects all AT-rich sequences by showing varied fluorescence/sensitivity. […]

The subject of series [3] is DM3 (5′-AAAA-3′). The description is as above. In kind it is binding. Conditions: QCy-DT 2 μM, DM3 4 μM. The protocol: as §3, §4, §5, §6
Series [4] deals with DM1 (5′-ATAT-3′). Described as above. The conditions noted are these: QCy-DT 2 μM, DM1 4 μM. In kind it is binding. As for the experimental part:
as §3, §4, §5, §6

Series [5] deals with DM2 (5′-ATTA-3′). The description is as above. In kind it is binding. The conditions noted are these: QCy-DT 2 μM, DM2 4 μM. The protocol:
as §3, §4, §5, §6

The test system of series [6] is DNA. Kind of series: Stokes shift from absorption and emission spectra, in presence of DNA. In kind it is physicochemical. The conditions noted are these: present disclosure. As for the experimental part:
as §5
The molecular interactions of QCy-DT is studied by evaluating the absorption and emission properties in Tris-buffer (100 mM, pH=7.4) under ambient conditions. […] The NIR-fluorescence of QCy-DT arises due to extended through the Cy7 backbone and ICT process. The weak or non-fluorescent behavior of dye molecules in buffer solution is mainly attributed to the intramolecular twisting processes, which cause quenching of the fluorescence of cyanine dyes, solvation with water molecules also aids the fluorescence quenching by means of deactivation of […]. […]

Series [7] relates to RNA. Kind of series: Fluorescence response with RNA. In kind it is binding. The conditions noted are these: QCy-DT 2 μM, RNA 4 μM, Tris-HCl. The protocol: as §1, §2

SMILES strings stand for the structures.

As for `C[n+]1c(/C=C/c2ccc(O)c(/C=C/c3sc4ccccc4[n+]3C)c2)sc2ccccc21` [QCy-DT, quinone cyanine-dithiazole], the fluorescence enhancement is on record as approximately 40 fold in series [1]; approximately 72 fold in series [2]; approximately 40 fold in series [3]; approximately 8 fold in series [4]; approximately 15 fold in series [5]. Also, in series [6], the “Stokes shift in presence of DNA” value came to 86 nm. Further, the fluorescence response result in series [7] is “very weak response”.
